Measurements reported in patent US6310213A, “Ethanesulfonyl-piperidine derivatives” (Hoffmann-La Roche Inc., priority 1999, dated 2001).
Several values for one entry are separate records, joined by “and”; a condition that tells them apart may be missing. Equal values may be shown once.

How the values were obtained:
[1] = target: T1, NMDA NR2B subunit containing receptors (Rattus norvegicus, UniProt P35439+Q00960); experiment: 3H [R-(R*,S*)]-α-(4-Hydroxy-phenyl)-β-methyl-4-(phenyl-methyl)-1-piperidine propanol binding; design: species or system rat (Male Fullinsdorf albino rats); details: rat brain membranes, 5 nM radioligand, 2 hours at 4° C., pH 7.4; read-out: Inhibition of 3H [R-(R*, S*)]-α-(4-Hydroxy-phenyl)-β-methyl-4-(phenyl-methyl)-1-piperidine propanol binding IC50
T1 construct: Membranes were prepared by homogenization of the whole brain minus cerebellum and medulla oblongata; from tissue; host or cells: rat whole brain minus cerebellum and medulla oblongata, membranes
Protocol: ^a Inhibition of binding indicates affinity for NMDA NR2B subunit
3H [R-(R*,S*)]-α-(4-Hydroxy-phenyl)-β-methyl-4-(phenyl-methyl)-1-piperidine propanol) binding
(§1) Male Fullinsdorf albino rats weighing between 150-200 g were used. Membranes were prepared by homogenization of the whole brain minus cerebellum and medulla oblongata with a Polytron (10.000 rpm, 30 seconds), in 25 volumes of a cold Tris-HCl 50 mM, EDTA 10 mM, pH 7.1 buffer. The homogenate was centrifuged at 48.000 g for 10 minutes at 4° C. The pellet was resuspended using the Polytron in the same volume of buffer and the homogenate was incubated at 37° C. for 10 minutes. After centrifugation the pellet was homogenized in the same buffer and frozen at -100° C. for at least 16 hours but not more than 10 days. For the binding assay the homogenate was thawed at 37° C., centrifuged and the pellet was washed three times as above in a Tris-HCl 5 mM, pH 7.4 cold buffer. The final pellet was resuspended in the same buffer and used at a final concentration of 200 μg of protein/ml.
3H [R-(R*,S*)]-α-(4-Hydroxy-phenyl)-β-methyl-4-(phenyl-methyl)-1-piperidine propanol binding experiments were performed using a Tris-HCl 50 mM, pH 7.4 buffer. For displacement experiments 5 nM of 3H [R-(R*,S*)]-α-(4-Hydroxy-phenyl)-β-methyl-4-(phenyl-methyl)-1-piperidine propanol were used and non specific binding was measured using 10 μM of tetrahydroisoquinoline and usually it accounts for 10% of the total. The incubation time was 2 hours at 4° C. and the assay was stopped by filtration on Whatmann GF/B glass fiber filters (Unifilter-96, Packard, Zurich, Switzerland). The filters were washed 5 times with cold buffer. The radioactivity on the filter was counted on a Packard Top-count microplate scintillation counter after addition of […] of microscint 40 (Canberra Packard S. A., Zurich, Switzerland).
The effects of compounds were measured using a minimum of 8 concentrations and repeated at least once. The pooled normalized values were analyzed using a non-linear regression calculation program which provide IC50 with their relative upper and lower 95% confidence limits (RS1, BBN, USA).

α1-adrenergic receptors = experiment: 3H-Prazosin binding; design: species or system rat (Male Fullinsdorf albino rats); details: rat brain membranes, 0.2 nM 3H-Prazosine, 30 minutes at room temperature, pH 7.4; read-out: Inhibition of [3H]-Prazosin binding IC50
Protocol: ^b Inhibition of binding indicates affinity for α1
as §1, with “a Plytron” for “a Polytron”, “at -80°” for “at -100°”, “Tris-HCl 15mM,” for “Tris-HCl 5 mM,”, “[…]” for “200 μg”
3H-Prazosin binding experiments were performed using a Tris-HCl 50 mM, pH 7.4 buffer. For displacement experiments 0.2 nM of 3H-Prazosine were used and non specific binding was measured using […] of Chlorpromazine. The incubation time was 30 minutes at room temperature and the assay was stopped by filtration on Whatman GF/B glass fiber filters (Ubrifilter-96, Canberra Packard S. A., Zurich, Switzerland). The filters were washed 5 times with cold buffer. The radioactivity on the filter was counted on a Packard Top-count microplate scintillation counter after addition of […] of microscint 40 (Canberra Packard S. A., Zurich, Switzerland). The effects of compounds were measured using a minimum of 8 concentrations and repeated at least once. The pooled normalized values were analyzed using a non-linear regression calculation program which provide IC50 with their relative upper and lower 95% confidence limits (RS1, BBN, USA).

NMDA NR1 + NR2B = target: T2, NMDA NR1 + NR2B (Homo sapiens, UniProt Q05586+Q13224); experiment: Block of recombinant NMDA receptor subtype NR1 + NR2B expressed in Xenopus oocytes; assay type: cell-based
T2 construct: expressed in transfected cells; host or cells: Xenopus oocytes
Text: (§2) ^c Indicates the ability to block selectively recombinant NMDA receptor
(§3) subtypes expressed in Xenopus oocytes.

NMDA NR1 + NR2A = target: T3, NMDA NR1 + NR2A (Homo sapiens, UniProt Q05586+Q12879); experiment: Block of recombinant NMDA receptor subtype NR1 + NR2A expressed in Xenopus oocytes; assay type: cell-based
T3 construct: expressed in transfected cells; host or cells: Xenopus oocytes
Text: as §2, §3

[2] = test system: i.c.v. NMDA-induced convulsions in mice; experiment: Block of i.c.v. NMDA-induced convulsions in mice; assay type: in vivo; details: Mus musculus, iv
Text: |^d Indicates potency in mg/kg i.v. to block i.c.v. NMDA-induced | convulsions in mice.

[3] = target: T4, recombinant human ERG potassium channels (Homo sapiens, UniProt Q12809); experiment: Inhibition of the HERG K+ channel, whole-cell patch-clamp, transfected CHO cells; assay type: cell-based; details: concentrations above 10 μM not tested
T4 construct: expressed in transfected cells; host or cells: CHO cells, stably transfected with pcDNA3-HERG
Text: Method 3 Methods for Studying the Inhibition of the HERG K^+ Channel CHO cells were stably transfected by a pcDNA3-HERG expression vector containing a SV40-neo cassette for selection. Cells were thinly plated into 35 mm dishes and used for the electrophysiological experiment 1/2-3 d later. […] A 10-mM stock solution of the test compound was made from pure DMSO. Test solution were made by at least 1000-fold dilution of the stock solution into the extracellular saline. […] The whole-cell configuration of the patch-clamp technique was used for the experiments. […] The membrane current was recorded for at least 3 min (18 stimuli) before compound application (control), and then for another two 3-min intervals in presence of two different concentrations of the compound. The current amplitudes (Itest) at the end of each compound application interval were divided by the mean current amplitude (Icontrol) during the initial control period to calculate the percentage effect of the compound: effect (%)=(1-Itest /Icontrol)·100. […] If after the first experiment the IC50 turned out to lie outside the range between the two chosen concentrations the concentrations were changed to bracket the IC50 in the following experiments. The compound was tested on at least three cells.

T3 sequence (Q12879 23-1464, other chains not shown): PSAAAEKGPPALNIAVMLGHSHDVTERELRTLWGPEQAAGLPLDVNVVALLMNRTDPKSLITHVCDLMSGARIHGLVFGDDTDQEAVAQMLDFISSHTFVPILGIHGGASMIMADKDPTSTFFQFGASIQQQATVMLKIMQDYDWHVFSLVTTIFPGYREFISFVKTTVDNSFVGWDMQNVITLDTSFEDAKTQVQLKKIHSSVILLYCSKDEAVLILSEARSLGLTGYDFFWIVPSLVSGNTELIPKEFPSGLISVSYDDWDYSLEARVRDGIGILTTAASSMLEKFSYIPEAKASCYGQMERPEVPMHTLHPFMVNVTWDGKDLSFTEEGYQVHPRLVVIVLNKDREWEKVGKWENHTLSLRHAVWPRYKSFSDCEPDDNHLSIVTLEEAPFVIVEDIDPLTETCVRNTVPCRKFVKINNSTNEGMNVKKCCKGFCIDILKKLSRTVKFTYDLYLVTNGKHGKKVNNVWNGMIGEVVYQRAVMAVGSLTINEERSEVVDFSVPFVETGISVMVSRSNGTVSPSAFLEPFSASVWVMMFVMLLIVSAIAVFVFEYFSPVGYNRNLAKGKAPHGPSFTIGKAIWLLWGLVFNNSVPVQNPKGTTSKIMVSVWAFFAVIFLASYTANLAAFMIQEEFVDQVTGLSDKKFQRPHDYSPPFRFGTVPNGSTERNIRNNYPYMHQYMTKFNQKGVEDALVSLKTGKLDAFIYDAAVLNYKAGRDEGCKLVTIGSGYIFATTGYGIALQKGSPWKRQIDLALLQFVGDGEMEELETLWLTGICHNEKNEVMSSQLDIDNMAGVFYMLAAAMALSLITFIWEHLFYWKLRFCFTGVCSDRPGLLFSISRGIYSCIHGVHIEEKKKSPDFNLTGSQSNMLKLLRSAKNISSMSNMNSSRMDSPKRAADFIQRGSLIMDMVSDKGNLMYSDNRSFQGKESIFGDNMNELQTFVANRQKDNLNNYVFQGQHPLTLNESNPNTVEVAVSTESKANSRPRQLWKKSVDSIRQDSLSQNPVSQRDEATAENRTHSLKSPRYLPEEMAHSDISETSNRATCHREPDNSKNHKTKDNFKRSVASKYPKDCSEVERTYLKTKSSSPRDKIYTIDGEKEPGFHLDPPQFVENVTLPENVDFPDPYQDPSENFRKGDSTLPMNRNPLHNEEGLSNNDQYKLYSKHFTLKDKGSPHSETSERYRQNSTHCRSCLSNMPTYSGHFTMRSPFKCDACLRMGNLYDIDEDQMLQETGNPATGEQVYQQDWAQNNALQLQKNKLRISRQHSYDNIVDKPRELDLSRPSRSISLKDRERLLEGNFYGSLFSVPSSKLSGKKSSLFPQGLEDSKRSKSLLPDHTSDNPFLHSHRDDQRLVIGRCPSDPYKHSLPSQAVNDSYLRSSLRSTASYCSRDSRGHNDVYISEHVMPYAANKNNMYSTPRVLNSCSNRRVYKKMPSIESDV
T4 sequence (Q12809 whole entry): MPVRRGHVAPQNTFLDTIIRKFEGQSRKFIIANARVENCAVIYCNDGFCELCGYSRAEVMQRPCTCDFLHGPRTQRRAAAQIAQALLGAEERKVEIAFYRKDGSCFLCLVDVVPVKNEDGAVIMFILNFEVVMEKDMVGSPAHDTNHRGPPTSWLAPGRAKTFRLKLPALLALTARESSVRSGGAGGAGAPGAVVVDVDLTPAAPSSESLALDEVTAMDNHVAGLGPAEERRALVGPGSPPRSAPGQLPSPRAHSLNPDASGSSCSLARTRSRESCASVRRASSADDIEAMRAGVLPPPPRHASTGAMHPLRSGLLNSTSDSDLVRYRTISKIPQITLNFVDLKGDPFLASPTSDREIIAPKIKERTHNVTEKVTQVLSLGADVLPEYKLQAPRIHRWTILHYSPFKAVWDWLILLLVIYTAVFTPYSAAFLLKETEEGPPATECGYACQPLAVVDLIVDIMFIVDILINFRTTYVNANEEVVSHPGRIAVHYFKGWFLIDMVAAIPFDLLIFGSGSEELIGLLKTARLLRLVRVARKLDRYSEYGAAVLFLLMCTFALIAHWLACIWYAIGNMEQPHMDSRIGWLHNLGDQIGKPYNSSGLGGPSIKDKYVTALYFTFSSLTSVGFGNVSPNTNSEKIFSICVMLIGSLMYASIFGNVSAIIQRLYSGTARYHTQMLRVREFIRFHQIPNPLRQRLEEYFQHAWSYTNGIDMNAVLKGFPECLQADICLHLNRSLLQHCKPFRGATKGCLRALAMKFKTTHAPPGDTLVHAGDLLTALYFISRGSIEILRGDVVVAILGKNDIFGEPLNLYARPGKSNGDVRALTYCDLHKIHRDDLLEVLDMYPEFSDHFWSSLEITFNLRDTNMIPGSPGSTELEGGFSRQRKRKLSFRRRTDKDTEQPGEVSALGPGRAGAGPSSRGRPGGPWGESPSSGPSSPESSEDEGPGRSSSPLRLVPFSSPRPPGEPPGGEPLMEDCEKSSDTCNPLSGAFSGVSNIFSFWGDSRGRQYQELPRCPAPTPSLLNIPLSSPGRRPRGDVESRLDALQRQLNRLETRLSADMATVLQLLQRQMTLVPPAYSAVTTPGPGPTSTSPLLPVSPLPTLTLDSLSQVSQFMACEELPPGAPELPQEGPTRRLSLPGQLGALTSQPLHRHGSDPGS
T2 sequence (Q13224 27-1484, other chains not shown): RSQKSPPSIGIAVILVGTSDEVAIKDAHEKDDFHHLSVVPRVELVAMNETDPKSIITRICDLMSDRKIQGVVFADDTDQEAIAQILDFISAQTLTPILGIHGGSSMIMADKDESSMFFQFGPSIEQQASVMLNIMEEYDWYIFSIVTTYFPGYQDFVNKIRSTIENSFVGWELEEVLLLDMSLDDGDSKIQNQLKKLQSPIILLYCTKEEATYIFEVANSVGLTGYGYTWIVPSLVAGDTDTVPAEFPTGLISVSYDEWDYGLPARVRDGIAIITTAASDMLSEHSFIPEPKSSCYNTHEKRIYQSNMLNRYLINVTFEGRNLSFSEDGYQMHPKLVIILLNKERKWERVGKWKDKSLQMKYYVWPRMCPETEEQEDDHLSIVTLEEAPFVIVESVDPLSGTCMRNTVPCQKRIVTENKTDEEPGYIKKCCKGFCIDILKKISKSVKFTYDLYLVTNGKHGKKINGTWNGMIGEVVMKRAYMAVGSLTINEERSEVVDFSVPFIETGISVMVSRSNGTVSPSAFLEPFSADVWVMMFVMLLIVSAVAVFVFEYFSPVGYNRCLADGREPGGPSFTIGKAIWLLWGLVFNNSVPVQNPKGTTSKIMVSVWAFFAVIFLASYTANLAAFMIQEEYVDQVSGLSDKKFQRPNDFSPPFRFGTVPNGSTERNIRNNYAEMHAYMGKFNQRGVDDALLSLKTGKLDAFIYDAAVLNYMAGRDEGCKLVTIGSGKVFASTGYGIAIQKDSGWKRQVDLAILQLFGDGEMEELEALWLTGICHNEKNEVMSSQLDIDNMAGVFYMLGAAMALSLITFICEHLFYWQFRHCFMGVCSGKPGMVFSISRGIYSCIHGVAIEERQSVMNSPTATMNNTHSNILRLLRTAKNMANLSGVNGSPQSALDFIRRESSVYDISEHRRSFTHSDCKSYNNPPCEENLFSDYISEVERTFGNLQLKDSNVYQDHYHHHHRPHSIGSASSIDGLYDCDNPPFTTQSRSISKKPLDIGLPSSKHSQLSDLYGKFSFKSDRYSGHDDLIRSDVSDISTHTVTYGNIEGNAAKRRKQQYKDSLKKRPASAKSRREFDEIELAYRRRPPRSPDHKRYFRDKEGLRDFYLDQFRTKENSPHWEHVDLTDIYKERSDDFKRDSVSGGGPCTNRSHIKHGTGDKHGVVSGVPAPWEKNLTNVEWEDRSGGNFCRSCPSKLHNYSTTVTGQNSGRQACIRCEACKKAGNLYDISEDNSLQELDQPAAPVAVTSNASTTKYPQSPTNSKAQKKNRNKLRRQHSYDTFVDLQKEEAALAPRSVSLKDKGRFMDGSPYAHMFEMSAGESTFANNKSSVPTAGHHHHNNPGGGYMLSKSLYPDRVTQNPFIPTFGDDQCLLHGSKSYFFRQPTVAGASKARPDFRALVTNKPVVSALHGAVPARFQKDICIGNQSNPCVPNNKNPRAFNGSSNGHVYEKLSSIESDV

Compound	IC50 [1]	IC50 (α1-adrenergic receptors) [nM]	IC50 (NMDA NR1 + NR2B) [nM]	IC50 (NMDA NR1 + NR2A) [nM]	ED50 [2] [mg/kg]	IC50 [3] [nM]
Cc1ccc(C[C@H]2CCN(CCS(=O)(=O)c3ccc(O)cc3)C[C@H]2O)cc1 (single isomer, unassigned) [Compound 6, (-)(cis)-1-[2-(4-hydroxy-benzenesulfonyl)-ethyl]-4-(4-methyl-benzyl)-piperidin-3-ol]	11 nM and 11 to 24 nM	88000	8	> 10000	2.2	3700
Cc1ccc(OC2CCN(CCS(=O)(=O)c3ccc(O)cc3)CC2)cc1 [Compound 2, 4-[2-(4-p-tolyloxy-piperidin-1-yl)-ethanesulfonyl]-phenol]	24 nM and 11 to 24 nM	16000	< 10	> 10000	0.84	4700
Cc1ccc(CC2(O)CCN(CCOc3ccc(O)cc3)CC2)cc1 [Compound 9, 1-[2-(4-hydroxy-phenoxy)-ethyl]-4-(4-methyl-benzyl)-piperidin-4-ol, reference compound]	–	3500	3	> 100000	2.3	690

Continued by falling IC50 (α1-adrenergic receptors), values first:

IC50 [1]	IC50 (α1-adrenergic receptors) [nM]	IC50 (NMDA NR1 + NR2B) [nM]	IC50 (NMDA NR1 + NR2A) [nM]	Compound	ED50 [2] [mg/kg]	IC50 [3] [nM]
14 nM and 11 to 24 nM	55000	38	> 10000	O=S(=O)(CCN1CC[C@H](Cc2ccccc2)[C@H](O)C1)c1ccc(O)cc1 [Compound 3, (-)(3S,4S)-4-benzyl-1-[2-(4-hydroxy-benzenesulfonyl)-ethyl]-piperidin-3-ol]	3.8	–
18 nM and 11 to 24 nM	42000	< 10	> 10000	O=S(=O)(CCN1CCC(Cc2ccccc2)CC1)c1ccc(O)cc1 [Compound 1, 4[-2-(4-benzyl-piperidine-1-yl)-ethanesulfonyl]-phenol]	1.1	4000
